# From ChEMBL document CHEMBL4325861, “Naphthalene, a versatile platform in medicinal chemistry: Sky-high perspective” (Eur J Med Chem, 2019)
# Legend:
# [1] = tested on: Human immunodeficiency virus 1; test: Antiviral activity against HIV1 infected in human MT4 cells; assay type: functional, organism-based; details: Human immunodeficiency virus 1, MT4
# [2] = tested on: Pichia kudriavzevii; test: Antifungal activity against Candida krusei; assay type: functional
# [3] = Antiproliferative activity against human MEL28 cells; assay type: functional, cell-based; details: SK-MEL-28
# [4] = tested on: A549; test: Antiproliferative activity against human A549 cells; assay type: functional, cell-based
# [5] = tested on: P388; test: Antiproliferative activity against mouse P388 cells; assay type: functional, cell-based
# [6] = tested on: HT-29; test: Antiproliferative activity against human HT-29 cells; assay type: functional, cell-based
# [7] = target: Prostaglandin G/H synthase 1 (Homo sapiens) (UniProt P23219); test: Inhibition of COX1 (unknown origin) at 10 uM relative to control
# [8] = target: Prostaglandin G/H synthase 2 (Homo sapiens) (UniProt P35354); test: Inhibition of COX2 (unknown origin) at 10 uM relative to control
# [9] = tested on: Rattus norvegicus; test: Anti-inflammatory activity in rat assessed as inhibition of carrageenan-induced paw edema relative to control; assay type: functional
# [10] = tested on: MT4; test: Antiproliferative activity against human MT4 cells; assay type: functional
# [11] = tested on: THP-1; test: Anti-inflammatory activity in human THP1 cells assessed as reduction in TNF production; assay type: functional, cell-based
# [12] = tested on: Mycobacterium tuberculosis; test: Antimycobacterial activity against Mycobacterium tuberculosis H37Ra; assay type: functional
# [13] = tested on: Mycobacterium tuberculosis; test: Antimycobacterial activity against Mycobacterium tuberculosis H37Rv; assay type: functional, organism-based
# [14] = target: Angiotensin II receptor (Homo sapiens, UniProt P30556+P50052); test: Antagonist activity at angiotensin-2 receptor (unknown origin); assay type: protein assay
# [15] = tested on: HL-60; test: Antiproliferative activity against human HL60 cells; assay type: functional, cell-based
# [16] = tested on: HeLa; test: Antiproliferative activity against human HeLa cells; assay type: functional, cell-based
# [17] = tested on: Rattus norvegicus; test: Anti-inflammatory activity in Wistar albino rat assessed as inhibition of carrageenan-induced paw edema at 100 mg/kg, po via gavage measured after 1 hr by plethysmometric method relative to control; assay type: functional
# [18] = tested on: Mycobacterium tuberculosis; test: Antimycobacterial activity against Mycobacterium tuberculosis; assay type: functional
# [19] = tested on: HepG2; test: Antiproliferative activity against human HepG2 cells; assay type: functional, cell-based
# [20] = target: Chymase (Homo sapiens, UniProt P23946); test: Inhibition of chymase in human mast cells using Suc-Ala-Ala-Pro-Phe-(p-nitroanilide) as substrate for 15 mins by spectrophotometric method; assay type: cell-based
# [21] = Induction of apoptosis in human NB4.437r cells by Annexin V/propidium iodide staining based flow cytometry; assay type: functional, cell-based
# [22] = tested on: Cryptococcus neoformans; test: Antifungal activity against Cryptococcus neoformans; assay type: functional
# [23] = tested on: Rattus norvegicus; test: Anti-inflammatory activity in rat assessed as inhibition of carrageenan-induced paw edema after 4 hrs relative to control; assay type: functional
# [24] = tested on: Staphylococcus aureus; test: Antibacterial activity against Staphylococcus aureus; assay type: functional
# [25] = tested on: Candida albicans; test: Antifungal activity against Candida albicans; assay type: functional
# [26] = target: Prostaglandin G/H synthase 2 (Homo sapiens, UniProt P35354); test: Inhibition of COX2 (unknown origin)
# [27] = tested on: Alternaria alternata; test: Antifungal activity against Alternaria alternata assessed as zone of inhibition; assay type: functional
# [28] = tested on: Staphylococcus aureus; test: Antibacterial activity against Staphylococcus aureus assessed as zone of inhibition; assay type: functional
# [29] = tested on: Human immunodeficiency virus 1; test: Antiviral activity against HIV1; assay type: functional, organism-based
# [30] = Inhibition of Norovirus RNA-dependent RNA polymerase
# [31] = tested on: Mycobacterium avium; test: Antimycobacterial activity against Mycobacterium avium; assay type: functional
# [32] = target: Protein farnesyltransferase (Homo sapiens, UniProt P49354+P49356); test: Inhibition of FTase (unknown origin) assessed as reduction in transfer of [3H]FPP to Ki-Ras; assay type: protein-complex assay
# [33] = tested on: Neutrophil; test: Anti-inflammatory activity in human neutrophils assessed as inhibition of fMLP/cytochalasin B-induced superoxide anion generation preincubated for 5 mins followed by fMLP/cytochalasin B addition and measured after 10 mins by spectrophotometric method; assay type: functional, cell-based
# [34] = tested on: Neutrophil; test: Anti-inflammatory activity in human neutrophils assessed as inhibition of fMLP/cytochalasin B-induced elastase release preincubated for 5 mins followed by fMLP/cytochalasin B addition; assay type: functional, cell-based
# [35] = Inhibition of Human cytomegalovirus protease; set-up: species or system Human betaherpesvirus 5
# [36] = tested on: Aspergillus niger; test: Antifungal activity against Aspergillus niger by disk diffusion method; assay type: functional
# Prostaglandin G/H synthase 2, sequence (P35354 whole entry): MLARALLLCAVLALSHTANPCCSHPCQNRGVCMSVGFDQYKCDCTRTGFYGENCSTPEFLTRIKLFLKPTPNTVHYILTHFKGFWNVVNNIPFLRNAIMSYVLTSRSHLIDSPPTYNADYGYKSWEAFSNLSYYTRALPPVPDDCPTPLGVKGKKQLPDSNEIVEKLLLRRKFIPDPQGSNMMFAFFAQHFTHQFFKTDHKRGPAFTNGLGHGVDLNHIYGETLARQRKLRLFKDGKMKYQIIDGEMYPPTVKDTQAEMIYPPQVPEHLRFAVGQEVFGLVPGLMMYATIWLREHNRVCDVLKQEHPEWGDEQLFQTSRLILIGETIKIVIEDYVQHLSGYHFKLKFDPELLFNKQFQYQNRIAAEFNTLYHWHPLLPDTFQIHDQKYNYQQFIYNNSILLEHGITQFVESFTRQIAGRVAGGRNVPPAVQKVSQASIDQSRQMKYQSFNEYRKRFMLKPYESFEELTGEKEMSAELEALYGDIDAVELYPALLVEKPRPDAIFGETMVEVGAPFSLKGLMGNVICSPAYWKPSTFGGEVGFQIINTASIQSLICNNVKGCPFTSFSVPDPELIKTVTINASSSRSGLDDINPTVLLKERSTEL
# Prostaglandin G/H synthase 2 (Homo sapiens), sequence (P35354 whole entry): as above
# Prostaglandin G/H synthase 1 (Homo sapiens), sequence (P23219 whole entry): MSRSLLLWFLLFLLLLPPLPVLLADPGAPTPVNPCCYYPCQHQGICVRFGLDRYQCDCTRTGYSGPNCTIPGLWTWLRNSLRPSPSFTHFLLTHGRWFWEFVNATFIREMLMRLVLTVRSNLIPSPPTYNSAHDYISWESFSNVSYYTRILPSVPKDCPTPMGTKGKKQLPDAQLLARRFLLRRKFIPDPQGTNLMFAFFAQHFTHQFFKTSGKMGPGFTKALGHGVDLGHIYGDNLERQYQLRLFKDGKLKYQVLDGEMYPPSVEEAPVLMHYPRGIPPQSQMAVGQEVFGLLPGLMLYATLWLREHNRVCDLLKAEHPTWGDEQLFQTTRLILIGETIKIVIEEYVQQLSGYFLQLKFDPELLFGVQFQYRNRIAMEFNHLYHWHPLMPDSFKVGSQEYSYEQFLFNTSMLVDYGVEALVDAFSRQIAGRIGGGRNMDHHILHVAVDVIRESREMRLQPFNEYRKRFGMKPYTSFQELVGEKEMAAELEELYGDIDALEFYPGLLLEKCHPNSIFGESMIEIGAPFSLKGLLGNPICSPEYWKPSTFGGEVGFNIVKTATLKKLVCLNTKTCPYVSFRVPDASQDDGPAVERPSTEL
# Chymase, sequence (P23946 whole entry): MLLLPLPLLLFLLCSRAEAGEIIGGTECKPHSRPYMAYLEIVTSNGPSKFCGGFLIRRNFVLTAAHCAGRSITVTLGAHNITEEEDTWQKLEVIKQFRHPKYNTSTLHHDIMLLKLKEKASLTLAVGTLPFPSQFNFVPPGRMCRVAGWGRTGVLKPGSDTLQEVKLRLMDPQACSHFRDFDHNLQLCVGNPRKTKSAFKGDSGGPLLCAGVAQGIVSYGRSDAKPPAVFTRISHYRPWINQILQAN
smiles,measurement,setting,value
O=C(COc1ccc2ccccc2c1)NCc1nnc(SCc2nc3ccccc3[nH]2)n1-c1ccccc1,EC50,[1],0.2 µg/mL
Nc1nnc(COc2cccc3ccccc23)o1,MIC,[2],64 µg/mL
COc1ccc(/C=C/c2ccc3ccccc3c2)cc1O,IC50,[3],5.4 µM
same,IC50,[4],7.4 µM
same,IC50,[5],6.4 µM
same,IC50,[6],5.4 µM
COc1ccc2c(c1)CCC(NS(C)(=O)=O)C2 (centres undefined),inhibition,[7],87%
same,inhibition,[8],50%
COc1ccccc1C1CC(Nc2ccc3ccccc3c2)=NN1C(C)=O (centres undefined),inhibition (INH),[9],67.85%
COC(=O)C(NC(=O)COc1ccc2ccccc2c1)C(C)C (centres undefined),CC50,[10],42 µM
COc1ccc(/C=C\c2ccc3ccccc3c2)cc1O,IC50,[3],5.4 µM
same,IC50,[4],7.4 µM
same,IC50,[5],6.4 µM
same,IC50,[6],5.4 µM
Nc1ccc(-c2ccc(Cc3cccnc3)c(O)c2)c2ccccc12,IC50,[11],< 10 µM
O=C1C(O)=C(C(Nc2ccccn2)c2ccccc2O)C(=O)c2ccccc21 (centres undefined),MIC,[12],25 µg/mL
CC(=O)c1ccnc(C2=CC(=O)c3ccccc3C2=O)c1,MIC,[13],3.13 µg/mL
CCC(Cl)Cc1nc(CO)cn1Cc1ccc2cc(-c3nnn[nH]3)ccc2c1 (centres undefined),IC50,[14],0.2 µM
O=c1[nH]nc(COc2cccc3ccccc23)o1,MIC,[2],64 µg/mL
COc1ccc2cc(C(C)C(=O)NC(=S)Nc3ccc(CS(=O)(=O)Nc4cc(C)on4)cc3)ccc2c1 (centres undefined),inhibition (INH),[9],89.77%
COc1cc2c3c([nH]c2cc1Cl)C(=O)c1ccccc1C3=O,IC50,[15],53.1 µM
CCN(CC)CC1C(=O)c2cccc3cc([N+](=O)[O-])cc(c23)C1=O (centres undefined),IC50,[16],2.5 µg/mL
COc1ccc2cc(-c3nnc(-c4cc(Cl)cc(Cl)c4)o3)ccc2c1,inhibition in vivo at 100 mg/kg,[17],71.1%
COc1nc2ccc(Br)cc2cc1[C@H](c1ccccc1)N(C(=O)CN1CCOCC1)[C@@H](C)c1cccc2ccccc12,MIC,[18],60 µg/mL
CN(C)CCOc1ccc2c(c1)c1c(n2C)C(=O)c2ccccc2C1=O,IC50,[15],0.28 µM
COc1cc(OC)c(C2=CCN(C)CC2)c(O)c1C(=O)/C=C/c1ccc2ccccc2c1,IC50,[19],6.5 µM
O=C(c1ccc2ccccc2c1)C(c1cccc2ccccc12)P(=O)(O)O (centres undefined),Ki,[20],0.0023 µM
O=C(O)c1ccc2cc(-c3ccc(O)c(C45CC6CC(CC(C6)C4)C5)c3)ccc2c1 [O-DEMETHYLATED ADAPALENE],EC50,[21],11.9 µM
COc1ccc2[nH]c3c(c2c1)C(=O)c1ccccc1C3=O,IC50,[15],45.4 µM
COc1cc(OC)c(C2=CCN(C)CC2)c(O)c1C(=O)/C=C/c1cccc2ccccc12,IC50,[19],6.5 µM
CN(C)CCNC(=O)c1cc2c3ccccc3sc2c2ccccc12,IC50,[5],0.428 µM
CN1CCC(N)CC1c1ccc(-c2ccc(N)c3ccccc23)cn1 (centres undefined),IC50,[11],< 10 µM
O=C1c2cccc3cc([N+](=O)[O-])cc(c23)C(=O)C1CN1CCCC1 (centres undefined),IC50,[16],0.3 µg/mL
O=[N+]([O-])c1ccc2c(c1)-c1nnsc1CC2,MIC,[22],0.53 µg/mL
Oc1c(C2=NNC(c3ccc(Br)cc3)C2)ccc2ccccc12 (centres undefined),inhibition (INH),[23],68.96%
CC(C)NC(=N)c1ccc2c(c1)nc(-c1ccc3c(c1)C(C)(C)CCC3(C)C)n2Cc1ccc2ccccc2c1,MIC,[24],0.78 µg/mL
same,MIC,[25],0.78 µg/mL
COc1ccc2cc(CCS(C)(=O)=O)ccc2c1,inhibition,[7],29%
same,inhibition,[8],65%
same,IC50,[26],10 µM
C(=C\c1ccc2ccccc2c1)/c1ccc2ccccc2c1,IC50,[3],5.4 µM
same,IC50,[4],7.4 µM
same,IC50,[5],6.4 µM
same,IC50,[6],5.4 µM
Sc1nnc(COc2ccc3ccccc3c2)o1,MIC,[2],64 µg/mL
CC(=O)Oc1ccc2[nH]c3c(c2c1)C(=O)c1ccccc1C3=O,IC50,[15],1.31 µM
Nc1cccc2cccc(/N=C3/CCC/C(=N\c4cccc5cccc(N)c45)C3)c12,inhibition zone (IZ),[27],10.5 mm
same,inhibition zone (IZ),[28],10 mm
O=C1c2cccc3cc([N+](=O)[O-])cc(c23)C(=O)C1CN1CCCCC1 (centres undefined),IC50,[16],2 µg/mL
COc1ccc2cc([C@H](C)C(=O)O)ccc2c1 [NAPROXEN],inhibition (INH),[9],85.02%
COc1cc(/C=C\c2ccc3ccccc3c2)cc(OC)c1OC [NAPHTHYLCOMBRETASTATIN],IC50,[3],5.4 µM
same,IC50,[4],7.4 µM
same,IC50,[5],6.4 µM
same,IC50,[6],5.4 µM
NS(=O)(=O)c1ccc2c(c1)-c1nnsc1CC2,MIC,[22],0.53 µg/mL
CC(C)C(NC(=O)COc1ccc2ccccc2c1)C(=O)NN (centres undefined),EC50,[29],42 µg/mL
CS(=O)(=O)Nc1cc(Cc2ccc(Cl)cc2)c2ccccc2c1,IC50,[26],10 µM
O=C(Cc1cccc2c1CCCC2)N/N=C/c1ccc(O)c([N+](=O)[O-])c1,IC50,[13],3.07 µg/mL
CN(C)CCNC(=O)c1cc2c3c(cccc3c1)Sc1ccccc1-2,IC50,[5],0.176 µM
Cc1nc(/N=N/c2cc(S(=O)(=O)O)c3cc([N+](=O)[O-])cc(S(=O)(=O)O)c3c2)cc(C=O)c1O,IC50,[30],0.45 µM
CC(=O)Oc1ccc2c(c1)c1c(n2CCN(C)C)C(=O)c2ccccc2C1=O,IC50,[15],0.17 µM
COc1ccccc1NC(=O)c1cccc2ccccc12,MIC,[31],54 µM
CSCC[C@H](NC(=O)c1cccc2cc(NC[C@@H](N)CS)ccc12)C(=O)O,IC50,[32],0.017 µM
CC(=O)Oc1ccc2c(c1)c1c(n2C)C(=O)c2ccccc2C1=O,IC50,[15],1.01 µM
COc1cc(C(C)=O)c(O)c2ccc(O)cc12,IC50,[33],1.9 µg/mL
same,IC50,[34],3.17 µg/mL
CC(C)c1cccc(OC(=O)Nc2ccc(-c3ccc(CN4CCOCC4)nc3)c3ccccc23)c1,IC50,[11],< 10 µM
O=C(O)c1ccc(CNc2ccc3c(/C=C/c4ccc5ccc(Cl)cc5n4)cccc3c2)cc1,IC50,[35],2.7 µM
CSc1ncc(-n2nc(C(C)C)cc2NC(=O)Nc2ccc(-c3ccc(CN(C)C)nc3)c3ccccc23)cn1,IC50,[11],< 10 µM
N#CCCCOc1ccc(-c2ccc(N)c3ccccc23)cn1,IC50,[11],< 10 µM
c1ccc(-c2ccc3c(c2)CCCC3)cc1,MIC,[36],780 µg/mL
O=C(Nc1cccc(F)c1)c1cccc2ccccc12,MIC,[31],59 µM
CN(C)CC1C(=O)c2cccc3cc([N+](=O)[O-])cc(c23)C1=O (centres undefined),IC50,[16],0.15 µg/mL
COc1cc(/C=C/c2ccc3ccccc3c2)cc(OC)c1OC,IC50,[3],5.4 µM
same,IC50,[4],7.4 µM
same,IC50,[5],6.4 µM
same,IC50,[6],5.4 µM
COc1nc2ccc(Br)cc2cc1[C@@H](c1ccccc1)[C@@](O)(CCN(C)C)c1cccc2ccccc12 [BEDAQUILINE],MIC,[18],0.06 µg/mL
Nc1ccc(-c2ccc(CC3CCOC3)c(O)c2)c2ccccc12 (centres undefined),IC50,[11],< 10 µM
C(=C/c1ccc2ccccc2c1)/c1ccc2ccccc2c1,IC50,[3],5.4 µM
same,IC50,[4],7.4 µM
same,IC50,[5],6.4 µM
same,IC50,[6],5.4 µM
O=C(CCNc1c(Br)cc(Br)cc1C(=O)O)Nc1ccc2ccccc2c1,inhibition (INH),[9],67.37%
